# Earlier results as cited in paper PMC12854702 (Synlett : accounts and rapid communications in synthetic …, 2025).
# Columns and labels:
# [1] = test system: serotonin 5-HT2A receptor
# human SLACK = conditions: Tl+-flux, HEK-293 cells stably expressing human SLACK
structure (smiles),measurement,setting,value
CN1CCN(C2=Nc3ccccc3Oc3ccc(Cl)cc32)CC1 [loxapine],antagonism of serotonin 5-HT2A receptor,[1],potent antagonist
same,antagonism of dopamine D2 receptor,dopamine D2 receptor,potent antagonist
same,SLACK activation Emax,human SLACK,100%
same,antagonism of histamine H1 receptor,histamine H1 receptor,potent antagonist
